For eight molecules, IC50 results are on record in patent US9409917B2, “Heterocyclic amide derivatives as P2X7 receptor antagonists” (ACTELION PHARMACEUTICALS LTD., priority 2012, dated 2016).

The term IC50 denotes the concentration that inhibits the measured activity by half.

The test concerns the target human recombinant P2X7 receptor (Homo sapiens (Human), UniProt Q99572). Kind of test: YO-PRO assay: P2X7 receptor antagonistic activity (ATP-induced YO-PRO-1 uptake, FLIPR).
[1] abbreviates: read-out: IC50 [nM], antagonistic activities with respect to the P2X7 receptor, HEK-293 cells expressing human recombinant P2X7 receptor, YO-PRO-1 fluorescence, ATP 250 μM, 90 minutes, highest concentration 10 μM.

Read-outs that look alike come from different tables or passages of the source.

Sequence of human recombinant P2X7 receptor (Q99572 whole entry): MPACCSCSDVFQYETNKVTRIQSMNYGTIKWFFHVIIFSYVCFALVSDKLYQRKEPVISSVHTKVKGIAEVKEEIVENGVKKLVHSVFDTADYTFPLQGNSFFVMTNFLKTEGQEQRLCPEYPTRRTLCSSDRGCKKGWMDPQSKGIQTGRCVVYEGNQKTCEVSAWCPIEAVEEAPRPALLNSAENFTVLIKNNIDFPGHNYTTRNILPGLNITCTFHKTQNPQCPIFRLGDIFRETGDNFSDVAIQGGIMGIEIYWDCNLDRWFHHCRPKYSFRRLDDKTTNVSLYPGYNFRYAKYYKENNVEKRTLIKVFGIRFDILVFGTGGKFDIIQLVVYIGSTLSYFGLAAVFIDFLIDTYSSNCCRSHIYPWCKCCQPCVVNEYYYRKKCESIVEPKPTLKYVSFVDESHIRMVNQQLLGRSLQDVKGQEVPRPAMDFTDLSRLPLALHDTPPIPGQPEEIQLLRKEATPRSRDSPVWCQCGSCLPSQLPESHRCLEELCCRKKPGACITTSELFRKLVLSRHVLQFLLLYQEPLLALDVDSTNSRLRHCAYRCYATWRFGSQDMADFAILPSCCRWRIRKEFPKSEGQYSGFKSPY

On to `O=C(NC1CC1c1ccccc1)C1COc2ncccc21` (centres unmarked) [Example 64, 2,3-Dihydro-furo[2,3-b]pyridine-3-carboxylic acid (2-phenyl-cyclopropyl)-amide], for which the IC50 under setting [1] turned out to be 4850 nM.
Same read-out and setting: for `O=C(NCc1c(Cl)cc(Cl)cc1CO)C1COc2ncccc21` (single isomer, unassigned) [Example 24, 2,3-Dihydro-furo[2,3-b]pyridine-3-carboxylic acid 2,4-dichloro-6-hydroxymethyl-benzylamide] the value was 39.4 nM.
Take `Cc1ncc(C(CNC(=O)C2COc3ncccc32)N2CCC(F)(F)CC2)cn1` (single isomer, unassigned) [Example 27, rac-2,3-Dihydro-furo[2,3-b]pyridine-3-carboxylic acid [2-(4,4-difluoro-piperidin-1-yl)-2-(2-methyl-pyrimidin-5-yl)-ethyl]-amide]: the IC50 worked out at 1360 nM.
Turning to `O=C(N[C@H](CO)C1CCCCC1)C1COc2ncccc21` (single isomer, unassigned) [Example 1], the IC50 under setting [1] amounted to 1070 nM.
With `O=C(NCC(c1cnc(C(F)(F)F)nc1)N1CCOCC1)C1COc2ncccc21` (single isomer, unassigned) [Example 59, rac-2,3-Dihydro-furo[2,3-b]pyridine-3-carboxylic acid [2-morpholin-4-yl-2-(2-trifluoromethyl-pyrimidin-5-yl)-ethyl]-amide], the IC50 was 346 nM.
For `O=C(N[C@@H]1CCCc2ccccc21)C1COc2ncccc21` (stereo partly drawn) [Example 107, 2,3-dihydrofuro[2,3-b]pyridine-3-carboxylic acid ((R)-1,2,3,4-tetrahydronaphthalen-1-yl)-amide], the IC50 under setting [1] stood at 1220 nM.
Turning to `O=C(NCC(c1cnc(C(F)(F)F)nc1)N1CCOCC1)C1COc2ncccc21` (single isomer, unassigned) [Example 81, 2,3-Dihydro-furo[2,3-b]pyridine-3-carboxylic acid [2-morpholin-4-yl-2-(2-trifluoromethyl-pyrimidin-5-yl)-ethyl]-amide], the IC50 under setting [1] stood at 7520 nM.
Consider `Cc1cc(Cl)cc(Cl)c1CNC(=O)C1CCOc2c1ccc[n+]2[O-]` (racemic) [Example 41, rac-8-Oxy-3,4-dihydro-2H-pyrano[2,3-b]pyridine-4-carboxylic acid 2,4-dichloro-6-methyl-benzylamide], for which, where the note is “read-out: IC50 [nM], antagonistic activities with respect to the P2X7 receptor”, the IC50 was determined as 16.3 nM.
